Patent publication US20260152503A1, “SPIROBICYCLIC COMPOUNDS” (ACERAND THERAPEUTICS (HONG KONG) LIMITED, priority 2022, published 2026)

Columns and labels:
AN3CA = test: 2D cell proliferation assay, AN3CA; format: cell-based; conditions: Homo sapiens, AN3-CA, 96 hours, CTG, read-out: Cell Line, IC50 AN3CA
Method: (§1) Low IC50 values are indicative of the high potency of the FGFR inhibitor compounds in this assay selling. […] Cell proliferation assays are performed in two-dimensional (2D)) anchorage-dependent conditions in 96 well plates (Corning® Black/Clear flat Bottom, Cat #3603) with the following cell lines: • Ba/F3 FGFR2-BICC1 (human […]): Mouse Ba/F3 cell line stably expressed exogenous human FGFR2-BICC1 fusion gene bearing V546F mutation in FGFR2 Ba/F3; • FGFR2-BICC1 (human FGFR2/[…]): Mouse Ba/F3 cell line stably expressed exogenous human FGFR2-BICC1 fusion gene bearing N549K mutation in FGFR2; • Snu-16: human gastric cancer cell with FGFR2 amplification; • KATO III: human gastric cancer cell with FGFR2 amplification; • AN3CA: Human endometrial cancer with FGFR2 mutation (k310R, N549K); • MFM-223: Human breast cancer with FGFR1/2 amplification; • MFE-296: Human endometrial cancer with FGFR2 mutation (N549K); • MFE-280: Human endometrial cancer with FGFR2 mutation ([…]); • NCI-H1581: human non-small cell lung cancer with FGFR1 amplification; • KG-1a: Acute myelogenous leukemia with FGFR1OP2-FGFR1 translocation; • DMS114: human small cell carcinoma of the lung with FGFR1 amplification; • RT112: human bladder cancer with FGFR3 overexpression/FGFR3-TACC3 fusion; • SW780: human bladder cancer with FGFR3 overexpression/FGFR3-BALAP2L1 fusion; • Hep3B: Liver cancer with FGF19 amplification (FGFR4 ligand); • AGS: Human gastric adenocarcinoma with Kras G12D mutation and FGFR wild type; • PC-9: human non-small cell lung cancer (NSCLC) with wild-type FGFR and an EGFR del19 mutation; or • H1975: human non-small cell lung cancer (NSCLC) with wild-type FGFR and EGFR L858R/T790M mutation.
(§2) Cell lines are purchased from the American Type Culture Collection (ATCC) or Sigma. All cell lines are maintained in RPMI-1640 or DMEM supplemented with 10% heat-inactivated fetal bovine serum.
(§3) Cells growing in the log phase are detached with Gibco™ TrypLE™ Express Enzyme and plated in 96 well plate at 3000 to 5000 cells/well in 100 μl of media. After overnight incubation at 37° C., 5% CO2 incubator, cells are treated with compounds (50 uL/well) at the final concentrations spanning from 0.000038 uM to 10 μM (4-fold serial dilution for total of 10 points). Cells are incubated at 37° C., 5% CO2, and 95% humidity incubator for 96 hours. At the end of incubation 2D CTG reagent from Promega was added to each well according to vendors recommendation and mixed for 10 min in dark. The luminescence signals are determined with a Biotek™ plate reader. Data is fitted using a sigmoidal curve analysis program (GraphPad Prism®) with variable hill slope and IC50 is determined.

FGFR2 = molecular target: T1, FGFR2 (Homo sapiens, UniProt P21802, K310R/N549K); test: pERK potency assay (In Cell ELISA), AN3CA cells; format: cell-based; conditions: for IC50: pERK, AN3CA (FGFR2/k310R, N549K) cells, 3 hours; for FGFR1 IC50/FGFR2 IC50 / FGFR3 IC50/FGFR2 IC50: selectivity ratio, pERK potency; for FGFR1 IC50/FGFR2 IC50: FGFR2 relative to FGFR1; for FGFR3 IC50/FGFR2 IC50: FGFR2 relative to FGFR3
T1 construct: in FGFR aberrations of AN3CA (FGFR2/k310R, N549K); host or cells: AN3CA
T1 sequence (P21802 22-821 K310R/N549K): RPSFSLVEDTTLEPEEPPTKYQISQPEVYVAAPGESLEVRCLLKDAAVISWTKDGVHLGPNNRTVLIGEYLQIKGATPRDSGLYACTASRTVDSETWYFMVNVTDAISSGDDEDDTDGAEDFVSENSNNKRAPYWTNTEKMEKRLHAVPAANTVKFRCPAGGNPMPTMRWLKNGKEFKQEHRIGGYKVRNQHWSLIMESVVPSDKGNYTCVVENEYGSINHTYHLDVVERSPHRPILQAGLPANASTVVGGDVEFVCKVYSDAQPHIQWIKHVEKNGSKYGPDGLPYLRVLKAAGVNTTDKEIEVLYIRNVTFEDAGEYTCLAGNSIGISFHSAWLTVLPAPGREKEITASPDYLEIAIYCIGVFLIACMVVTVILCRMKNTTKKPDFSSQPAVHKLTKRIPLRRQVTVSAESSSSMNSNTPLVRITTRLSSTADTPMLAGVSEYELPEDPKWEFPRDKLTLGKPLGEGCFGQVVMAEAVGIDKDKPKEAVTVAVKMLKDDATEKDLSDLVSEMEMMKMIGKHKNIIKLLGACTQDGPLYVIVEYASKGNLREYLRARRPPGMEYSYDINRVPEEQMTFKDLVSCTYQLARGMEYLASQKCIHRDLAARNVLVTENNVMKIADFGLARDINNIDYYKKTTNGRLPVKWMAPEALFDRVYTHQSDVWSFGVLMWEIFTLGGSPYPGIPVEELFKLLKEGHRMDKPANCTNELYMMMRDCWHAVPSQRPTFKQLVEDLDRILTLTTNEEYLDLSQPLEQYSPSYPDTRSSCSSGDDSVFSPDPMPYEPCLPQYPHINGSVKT
Outline: (§4)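 IC50 values come from a 4-parameter sigmoidal fit of in-cell ELISA chemiluminescent pERK (Thr202/Tyr204) signal. Treatment lasted 3 h at 37 °C, final 0.000038 to 10 μM in 4-fold steps, using AN3CA (mutant FGFR2), DMS114 (amplified FGFR1) and RT112 (FGFR3 overexpression/fusion) cells.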

KATO III = test: 2D cell proliferation assay, KATO III; format: cell-based; conditions: Homo sapiens, 96 hours, CTG, read-out: Cell Line, IC50 KATO III
Method: as §1, §2, §3

FGFR3 = molecular target: T2, FGFR3 (Homo sapiens, UniProt P22607); test: pERK potency assay (In Cell ELISA), RT112 cells; format: cell-based; conditions: RT112 (FGFR3 overexpression/FGFR3-TACC3 fusion) cells, 3 hours
T2 construct: RT112 (FGFR3 overexpression/FGFR3-TACC3 fusion); host or cells: RT112; the other entry of the earlier key: TACC3 (Q9Y6A5, Transforming acidic coiled-coil-containing protein 3)
Outline: as §4

FGFR1 = molecular target: T3, FGFR1 (Homo sapiens, UniProt P11362); test: pERK potency assay (In Cell ELISA), DMS114 cells; format: cell-based; conditions: DMS114 (FGFR1 amplification) cells, 3 hours
T3 construct: DMS114 (FGFR1 amplification); host or cells: DMS114
T3 sequence (P11362 22-822): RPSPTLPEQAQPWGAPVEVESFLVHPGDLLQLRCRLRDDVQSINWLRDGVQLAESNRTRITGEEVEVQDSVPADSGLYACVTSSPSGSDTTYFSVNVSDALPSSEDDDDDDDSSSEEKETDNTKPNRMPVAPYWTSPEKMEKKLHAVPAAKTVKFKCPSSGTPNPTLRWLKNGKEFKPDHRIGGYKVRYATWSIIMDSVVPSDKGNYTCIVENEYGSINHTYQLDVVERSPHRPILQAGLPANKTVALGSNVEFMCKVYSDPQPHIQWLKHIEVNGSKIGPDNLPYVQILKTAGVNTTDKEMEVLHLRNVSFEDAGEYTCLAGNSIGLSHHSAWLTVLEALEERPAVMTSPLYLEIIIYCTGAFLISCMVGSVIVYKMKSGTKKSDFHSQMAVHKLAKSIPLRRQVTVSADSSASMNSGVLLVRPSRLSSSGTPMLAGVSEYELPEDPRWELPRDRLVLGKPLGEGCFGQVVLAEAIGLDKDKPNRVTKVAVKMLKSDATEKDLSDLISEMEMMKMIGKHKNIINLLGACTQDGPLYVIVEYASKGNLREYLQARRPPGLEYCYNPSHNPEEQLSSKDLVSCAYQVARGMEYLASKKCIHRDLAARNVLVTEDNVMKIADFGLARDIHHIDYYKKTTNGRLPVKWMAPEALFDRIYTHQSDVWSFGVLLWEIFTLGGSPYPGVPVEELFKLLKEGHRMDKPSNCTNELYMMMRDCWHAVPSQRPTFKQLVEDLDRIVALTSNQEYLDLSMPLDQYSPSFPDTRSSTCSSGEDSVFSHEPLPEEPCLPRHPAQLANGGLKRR
Outline: as §4

SNU-16 = test: 2D cell proliferation assay, SNU-16; format: cell-based; conditions: Homo sapiens, 96 hours, CTG, read-out: Cell Line, IC50 SNU-16
Method: as §1, §2, §3

Ba/F3 FGFR2-N549K = molecular target: T4, Ba/F3 FGFR2-N549K (Homo sapiens, UniProt P21802, N549K, cells depend on it); test: 2D cell proliferation assay, Ba/F3 FGFR2-N549K; format: cell-based, mouse; conditions: 96 hours, CTG, read-out: Cell Line, IC50 Ba/F3 FGFR2-N549K
T4 construct: fused on or other part: Q9H694 (Protein bicaudal C homolog 1)
T4 sequence (P21802 whole entry N549K, the tested form may be a part): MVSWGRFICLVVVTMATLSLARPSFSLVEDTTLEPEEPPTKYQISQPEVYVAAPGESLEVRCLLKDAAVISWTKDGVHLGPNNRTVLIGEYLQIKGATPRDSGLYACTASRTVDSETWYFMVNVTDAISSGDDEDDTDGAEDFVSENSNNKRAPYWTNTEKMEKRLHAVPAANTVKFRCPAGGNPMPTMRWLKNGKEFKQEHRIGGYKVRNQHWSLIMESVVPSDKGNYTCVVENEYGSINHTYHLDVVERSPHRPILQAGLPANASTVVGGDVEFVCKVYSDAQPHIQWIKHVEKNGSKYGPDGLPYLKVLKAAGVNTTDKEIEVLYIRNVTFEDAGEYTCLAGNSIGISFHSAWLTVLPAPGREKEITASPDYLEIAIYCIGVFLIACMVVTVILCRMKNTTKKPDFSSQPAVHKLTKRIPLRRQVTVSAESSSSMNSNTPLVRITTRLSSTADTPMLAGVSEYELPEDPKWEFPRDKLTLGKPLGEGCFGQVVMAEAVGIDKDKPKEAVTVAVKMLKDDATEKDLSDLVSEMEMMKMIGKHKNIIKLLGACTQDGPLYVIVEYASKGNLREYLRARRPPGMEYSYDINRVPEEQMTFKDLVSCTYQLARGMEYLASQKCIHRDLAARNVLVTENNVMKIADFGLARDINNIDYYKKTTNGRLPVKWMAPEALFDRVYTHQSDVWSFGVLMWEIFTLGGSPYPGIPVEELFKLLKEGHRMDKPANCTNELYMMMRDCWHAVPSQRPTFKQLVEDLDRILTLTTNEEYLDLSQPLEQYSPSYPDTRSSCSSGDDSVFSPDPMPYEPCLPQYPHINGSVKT
Method: as §1, §2, §3

Ba/F3 FGFR2-V564F = molecular target: T5, Ba/F3 FGFR2-V564F (Homo sapiens, UniProt P21802, V564F, cells depend on it); test: 2D cell proliferation assay, Ba/F3 FGFR2-V564F; format: cell-based, mouse; conditions: 96 hours, CTG, read-out: Cell Line, IC50 Ba/F3 FGFR2-V564F
T5 construct: fused on or other part: Q9H694 (Protein bicaudal C homolog 1)
T5 sequence (P21802 whole entry V564F, the tested form may be a part): as the sequence (P21802 whole entry N549K, the tested form may be a part) above, with K549N, V564F counted along it
Method: as §1, §2, §3

IC50 (FGFR2) | IC50 (FGFR3) | IC50 (FGFR1) | IC50 (SNU-16) | GI50 (Ba/F3 FGFR2-N549K) | GI50 (Ba/F3 FGFR2-V564F) | Compound | IC50 (AN3CA) | FGFR1 IC50/FGFR2 IC50 (FGFR2) | FGFR3 IC50/FGFR2 IC50 (FGFR2) | IC50 (KATO III)
1 to 10 nM | > 100 nM | > 100 nM | 1 to 10 nM | – | – | C=CC(=O)N1CCC2(CC=C(c3c(-c4ccc(Oc5ncccn5)cc4)c4c(N)ncnc4n3C)CC2)CC1 [Example 4, 1-(9-(4-amino-7-methyl-5-(4-(pyrimidin-2-yloxy)phenyl)-7H-pyrrolo[2,3-d]pyrimidin-6-yl)-3-azaspiro[5.5]undec-8-en-3-yl)prop-2-en-1-one] | 30 to 100 nM | F (a selectivity ratio greater than 50 but less than or equal to 150) | G (a selectivity ratio greater than 150 but less than or equal to 500) | 10 to 30 nM
≤ 1 nM | > 100 nM | 30 to 100 nM | 1 to 10 nM | – | – | C=CC(=O)N1CCC2(CC=C(c3c(-c4ccc(OC)cc4)c4c(N)ncnc4n3C)CC2)CC1 [Example 8, 1-(9-(4-amino-5-(4-methoxyphenyl)-7-methyl-7H-pyrrolo[2,3-d]pyrimidin-6-yl)-3-azaspiro[5.5]undec-8-en-3-yl)prop-2-en-1-one] | 1 to 10 nM | G (a selectivity ratio greater than 150 but less than or equal to 500) | H (a selectivity ratio greater than 500 but less than or equal to 1000) | 1 to 10 nM
1 to 10 nM | > 100 nM | > 100 nM | 10 to 30 nM | – | – | C=CC(=O)N1CCC2(CC=C(c3c(-c4cccc(F)c4)c4c(N)ncnc4n3C)CC2)CC1 [Example 10, 1-(9-(4-amino-5-(3-fluorophenyl)-7-methyl-7H-pyrrolo[2,3-d]pyrimidin-6-yl)-3-azaspiro[5.5]undec-8-en-3-yl)prop-2-en-1-one] | 30 to 100 nM | G (a selectivity ratio greater than 150 but less than or equal to 500) | G (a selectivity ratio greater than 150 but less than or equal to 500) | 10 to 30 nM
1 to 10 nM | > 100 nM | > 100 nM | 10 to 30 nM | – | – | C=CC(=O)N1CCC2(CC=C(c3c(-c4cccc(OC)c4)c4c(N)ncnc4n3C)CC2)CC1 [Example 16, 1-(9-(4-amino-5-(3-methoxyphenyl)-7-methyl-7H-pyrrolo[2,3-d]pyrimidin-6-yl)-3-azaspiro[5.5]undec-8-en-3-yl)prop-2-en-1-one] | 30 to 100 nM | F (a selectivity ratio greater than 50 but less than or equal to 150) | G (a selectivity ratio greater than 150 but less than or equal to 500) | 10 to 30 nM
≤ 1 nM | > 100 nM | 30 to 100 nM | 1 to 10 nM | – | – | C=CC(=O)N1CCC2(CC=C(c3c(-c4ccc(OC(F)F)cc4)c4c(N)ncnc4n3C)CC2)CC1 [Example 17, 1-(9-(4-amino-5-(4-(difluoromethoxy)phenyl)-7-methyl-7H-pyrrolo[2,3-d]pyrimidin-6-yl)-3-azaspiro[5.5]undec-8-en-3-yl)prop-2-en-1-one] | 10 to 30 nM | G (a selectivity ratio greater than 150 but less than or equal to 500) | G (a selectivity ratio greater than 150 but less than or equal to 500) | 1 to 10 nM
≤ 1 nM | > 100 nM | > 100 nM | 1 to 10 nM | 1 to 10 nM | 30 to 100 nM | C=CC(=O)N1CCC2(CC=C(c3c(-c4ccc(OC(F)F)nc4)c4c(N)ncnc4n3C)CC2)CC1 [Example 29, 1-(9-(4-amino-5-(6-(difluoromethoxy)pyridin-3-yl)-7-methyl-7H-pyrrolo[2,3-d]pyrimidin-6-yl)-3-azaspiro[5.5]undec-8-en-3-yl)prop-2-en-1-one] | – | H (a selectivity ratio greater than 500 but less than or equal to 1000) | J (a selectivity ratio greater than 2000) | 1 to 10 nM
≤ 1 nM | > 100 nM | > 100 nM | – | 1 to 10 nM | 1 to 10 nM | C=CC(=O)N1CCC2(CC=C(c3c(-c4ncc(C5CC5)cn4)c4c(N)ncnc4n3C)CC2)CC1 [Example 45, 1-(9-(4-amino-5-(5-cyclopropylpyrimidin-2-yl)-7-methyl-7H-pyrrolo[2,3-d]pyrimidin-6-yl)-3-azaspiro[5.5]undec-8-en-3-yl)prop-2-en-1-one] | – | G (a selectivity ratio greater than 150 but less than or equal to 500) | H (a selectivity ratio greater than 500 but less than or equal to 1000) | –
≤ 1 nM | > 100 nM | > 100 nM | – | > 100 nM | > 100 nM | C=CC(=O)N1CCC2(CC=C(c3c(-c4ncc(OC5CCOC5)cn4)c4c(N)ncnc4n3C)CC2)CC1 (centres unmarked) [Example 47, 1-(9-(4-amino-7-methyl-5-(5-((tetrahydrofuran-3-yl)oxy)pyrimidin-2-yl)-7H-pyrrolo[2,3-d]pyrimidin-6-yl)-3-azaspiro[5.5]undec-8-en-3-yl)prop-2-en-1-one] | – | G (a selectivity ratio greater than 150 but less than or equal to 500) | I (a selectivity ratio greater than 1000 but less than or equal to 2000) | –
≤ 1 nM | > 100 nM | > 100 nM | – | 1 to 10 nM | ≤ 1 nM | C=CC(=O)N1CCC2(CC=C(c3c(-c4ncc(OC5CC5)cn4)c4c(N)ncnc4n3C)CC2)CC1 [Example 50, 1-(9-(4-amino-5-(5-cyclopropoxypyrimidin-2-yl)-7-methyl-7H-pyrrolo[2,3-d]pyrimidin-6-yl)-3-azaspiro[5.5]undec-8-en-3-yl)prop-2-en-1-one] | – | G (a selectivity ratio greater than 150 but less than or equal to 500) | I (a selectivity ratio greater than 1000 but less than or equal to 2000) | –
1 to 10 nM | > 100 nM | > 100 nM | – | 1 to 10 nM | ≤ 1 nM | C=CC(=O)N1CCC2(CC=C(c3c(-c4ncc(C5CCOC5)cn4)c4c(N)ncnc4n3C)CC2)CC1 (centres unmarked) [Example 52, 1-(9-(4-amino-7-methyl-5-(5-(tetrahydrofuran-3-yl)pyrimidin-2-yl)-7H-pyrrolo[2,3-d]pyrimidin-6-yl)-3-azaspiro[5.5]undec-8-en-3-yl)prop-2-en-1-one] | – | H (a selectivity ratio greater than 500 but less than or equal to 1000) | I (a selectivity ratio greater than 1000 but less than or equal to 2000) | –
